Test results as given in paper PMC12794186, “Covalent Alkynylpyridopyrimidinones Targeting Cysteine 775 of the Epidermal Growth Factor Receptor Overcome Resistance to Current Therapies” (Journal of Medicinal Chemistry, 2025).
Where two headings read alike, the source gives them in different places.

What was measured:
panel of 394 kinases = test: Kinase selectivity panel, summary; type: binding; conditions: 1.0 μM
[1] = test system: EGFR phosphorylation (Tyr1068) in A431 (WT-EGFR) cells; test: HTRF cellular EGFR phosphorylation; type: cell-based; conditions: Homo sapiens, A-431, mean ± SD of 4 experiments, read-out: A431 pEGFR IC50
Protocol: (§1) Cells were plated at 20,000 cells per well in 96-well plates and placed at 37 °C with 5% CO2. Compounds were reconstituted in DMSO. Once adhered (after 24 h), cells were treated with compounds at a final concentration of 0.1% DMSO in media. Compounds were added to duplicate wells and incubated 37 °C for 3 h with 5% CO2. For A431 cells 0.5 h before the end of incubation; 100 ng/mL of EGF (Thermo Fisher, Cat. No. PHG0311) was added to all compound-treated cells as well as control. Compound and media were removed from the cells, and then 50 μL of HTRF lysis buffer was added (lysis buffer was diluted from 4× stock to 1× in deionized (DI) water, with 1% blocking agent also added). Cells were lysed on a plate shaker (2000 rpm) for 30 min at room temperature. pEGFR expression was assessed using the Human Phospho-EGFR (Tyr1068) cellular detection kit (Revvity, Cat. No. 64EG1PEH). Total EGFR expression was monitored using the Human Total EGFR cellular detection kit (Revvity, Cat. No. 64NG1PEH) as per the manufacturer’s instructions. Fluorescence emission was read at two different wavelengths (665 and 620 nm) on a PHERAstar microplate reader (BMG Labtech). Results were calculated as the ratio of pEGFR/total EGFR and then the percentage of 0 μM control.

[2] = biological target: recombinant doubly mutated EGFR L858R, T790M kinase domain (mLT-EGFR) (Homo sapiens, UniProt P00533, L858R/T790M); test: Kinetic analysis (AssayQuant); type: biochemical; conditions: read-out: KI app
recombinant doubly mutated EGFR L858R, T790M kinase domain (mLT-EGFR), sequence (P00533 712-979 T790M/L858R limits assumed): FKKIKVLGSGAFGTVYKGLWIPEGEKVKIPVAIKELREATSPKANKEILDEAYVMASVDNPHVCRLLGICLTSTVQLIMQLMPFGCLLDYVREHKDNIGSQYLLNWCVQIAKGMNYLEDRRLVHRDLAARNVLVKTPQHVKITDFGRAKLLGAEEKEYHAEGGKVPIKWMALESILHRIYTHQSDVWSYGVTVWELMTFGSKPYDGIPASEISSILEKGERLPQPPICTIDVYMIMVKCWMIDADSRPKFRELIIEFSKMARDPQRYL
Protocol: Measurement of K I, K inact and K inact/K I was carried out by AssayQuant Technologies inc.

[3] = test system: pERK1/2 phosphorylation in H1975 (L858R, T790M) cells; test: Western blot of ERK1/2 phosphorylation; type: cell-based; conditions: H1975, 4 h exposure
Protocol: Cells, seeded on the previous day, were incubated with test compound at the indicated concentrations or DMSO (0.1%) for 4 h. Cells were lysed in Phosphosafe extraction buffer (Merck, Cat. No. 71296) combined with cOmplete Protease Inhibitor Cocktail (Merck, Cat. No. 4693116001) prepared as per the manufacturer’s instructions. Protein concentrations were determined using BCA Protein Assay Kit (Thermo Scientific, Cat. No. 23227). Preparation of lysates and Western blotting was performed twice as independent experiments.
Samples were prepared by diluting lysates in PBS to the desired concentration and before adding 4X XT sample buffer. Samples were then denatured at 98 °C for 5 min and then centrifuged to remove the residue. […] The quality of transfer was assessed using Ponceau S Stain (Sigma-Aldrich Cat. No. p7170).
Primary antibodies raised to EGFR (CST Cat. No. 4267), phospho-EGFR (CST Cat. No. 3777), phospho-p44/42 MAPK(ERK1/2) (CST Cat. No. 9101S) and p44/42 MAPK (CST Cat. No. 9102S) were diluted (1:1000) in 5% BSA w/v. Loading control antibodies were prepared in 5% milk w/v with 1× TBS/T (0.1 v/v) solution at a determined optimum concentration.
Proteins were detected using Clarity ECL substrate (Bio-Rad) and imaged using a Licor Odyssey FC.

wild-type EGFR (WT-EGFR) = biological target: T1, wild-type EGFR (WT-EGFR) (Homo sapiens, UniProt P00533); test: TR-FRET fluorescent probe displacement assay; type: binding; conditions: TR-FRET, n > 3
T1 construct: made in house; host or cells: SF9 insect cells (MultiBac)
T1 sequence (P00533 696-1022 limits assumed): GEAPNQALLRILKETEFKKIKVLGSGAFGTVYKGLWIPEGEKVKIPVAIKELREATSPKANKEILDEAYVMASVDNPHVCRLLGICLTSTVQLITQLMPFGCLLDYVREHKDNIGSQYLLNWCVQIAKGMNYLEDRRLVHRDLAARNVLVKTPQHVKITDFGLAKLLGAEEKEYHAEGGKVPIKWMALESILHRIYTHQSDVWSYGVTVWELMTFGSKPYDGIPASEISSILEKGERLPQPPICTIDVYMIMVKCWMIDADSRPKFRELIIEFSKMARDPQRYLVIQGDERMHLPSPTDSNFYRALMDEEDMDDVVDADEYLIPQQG
Protocol: Compounds (dissolved to 100 mM in DMSO) were dispensed into black low volume 384 well assay plates (Corning) over a final concentration range of 100,000, 30,000, 10,000, 3000, 1000, 300, 100, 30, 10, and 3 nM using an Echo 550 (Labcyte). Positive control compound and DMSO as a negative control were dispensed into the first and last well, respectively. Each well was backfilled with DMSO to a final volume of 200 nL, resulting in final assay DMSO concentrations of 1%. […] The data were analyzed using Graphpad Prism/Dotmatics Studies Software. Assays conducted in technical replicate and repeated as a biological duplicate.

TYK2 = test: Kinase selectivity panel; type: binding; conditions: 1.0 µM
[4] = test system: EGFR phosphorylation (Tyr1068) in H1975 (L858R, T790M) cells; test: HTRF cellular EGFR phosphorylation; type: cell-based; conditions: Homo sapiens, NCI-H1975; HTRF, mean ± SD of 4 experiments; read-out: H1975 pEGFR IC50
Protocol: as §1, with “Fluorescence emission was read at two different wavelengths (665 and 620 nm) on a PHERAstar microplate reader (BMG Labtech).” left out

FLT3 = test: Kinase selectivity panel; type: binding; conditions: 1.0 µM

C#Cc1cc(=O)n(-c2ccccc2)c2nc(Nc3ccc(N(C)CCN(C)C)cc3)ncc12 [Compound 7, 2-((4-((2-(Dimethylamino)ethyl)(methyl)amino)phenyl)amino)-5-ethynyl-8-phenylpyrido[2,3-d]pyrimidin-7(8H)-one]
number of kinases showing >75% inhibition (panel of 394 kinases): 10 | IC50 [1]: 4100 nM | Ki [2]: 22 ± 1.3 nM | reduction in ERK1/2 phosphorylation (Western blot) [3]: concomitant reduction in ERK1/2 phosphorylation | IC50 (wild-type EGFR (WT-EGFR); read-out: WT-EGFR IC50): 200 nM | IC50 (wild-type EGFR (WT-EGFR); read-out: WT-EGFR pIC50 ± std dev (converted)): 200 nM | Mean (Percent Control) (TYK2): 58.5 Percent Control | IC50 [4]: 140 ± 21 nM | Mean (Percent Control) (FLT3): 15 Percent Control
